Experiment [1] deals with larvae of the banded cucumber beetle (Diabrotica balteata). Put plainly: Diabrotica balteata spray test. It counts as in vivo. The conditions noted are these: 168 h, 100 g/ha (=32 μg/well), after 7 days, read-out: efficacy (seedling growth). The procedure, abridged:
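Germinated wheat seeds on agar (5 per well) were sprayed with compound formulated in acetone/DMF and diluted in water with 1000 ppm emulsifier. Each unit was then infested with 10–20 larvae. Efficacy % was scored after 7 days as seedling growth relative to an untreated, uninfested control (100% = normal growth).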

The subject of experiment [2] is green peach aphid (Myzus persicae). The experiment is described as follows: whole plant or invertebrate. It counts as in vivo. The conditions noted are these: 120 h. As for the experimental part:
Solvent: 100 parts by weight acetone
To produce a suitable preparation of active compound, 1 part by weight of active compound is mixed with the stated amount of solvent, and the concentrate is diluted with water to the desired concentration.
50 μL compound solution is filled in microtiter plates and 150 μL IPL41 insect medium (33%+15% sugar) is added to obtain a total volume of 200 μL per well. Afterwards the plates are sealed with parafilm through which a mixed population of the green peach aphid (Myzus persicae) can suck on the compound preparation.
After 5 days mortality in % is determined. 100% means all aphids have been killed and 0% means none of the aphids have been killed.
Myzus persicae—Oral Test (MYZUPE Oral)

SMILES strings stand for the structures.

On to `C[C@H](NC(=O)c1cc(Br)cc(OC(F)(F)F)c1)c1ncnn1-c1cc(C#N)ncn1` [I-1, 3-bromo-N-{(1S)-1-[1-(6-cyanopyrimidin-4-yl)-1H-1,2,4-triazol-5-yl]ethyl}-5-(trifluoromethoxy)benzamide], for which the pest or weed control at 32 µg/disc, 100 g/ha in experiment [1] stood at 80%. In addition, the mortality at 0.16 ppm in experiment [2] (MYZUPE oral, 0.16 ppm, 5 dat (Table 3), read-out: % Efficacy) was found to be 100%. The molecule also returned a mortality at 4 ppm in experiment [2] (po) of 100%.
